Molecular target: BTK (Homo sapiens (Human), UniProt Q06187)
Assay: Btk kinase assay (HTRF)
Assay type: biochemical
Details: [ATP]=80 μM, BTK=3.4 nM; read-out: BTK Inhibition
In short: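 HTRF kinase read-out (665/615 nm ratio, excitation 330 nm) after EDTA quench and 1 h detection incubation. Reaction: 3.4 nM BTK, ATP 80 μM, peptide substrate 1 μM, compound, HEPES pH 7.0 buffer, 1 h; IC50 derived using uninhibited and enzyme-free controls.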

Sequence of BTK (Q06187 whole entry, species assumed): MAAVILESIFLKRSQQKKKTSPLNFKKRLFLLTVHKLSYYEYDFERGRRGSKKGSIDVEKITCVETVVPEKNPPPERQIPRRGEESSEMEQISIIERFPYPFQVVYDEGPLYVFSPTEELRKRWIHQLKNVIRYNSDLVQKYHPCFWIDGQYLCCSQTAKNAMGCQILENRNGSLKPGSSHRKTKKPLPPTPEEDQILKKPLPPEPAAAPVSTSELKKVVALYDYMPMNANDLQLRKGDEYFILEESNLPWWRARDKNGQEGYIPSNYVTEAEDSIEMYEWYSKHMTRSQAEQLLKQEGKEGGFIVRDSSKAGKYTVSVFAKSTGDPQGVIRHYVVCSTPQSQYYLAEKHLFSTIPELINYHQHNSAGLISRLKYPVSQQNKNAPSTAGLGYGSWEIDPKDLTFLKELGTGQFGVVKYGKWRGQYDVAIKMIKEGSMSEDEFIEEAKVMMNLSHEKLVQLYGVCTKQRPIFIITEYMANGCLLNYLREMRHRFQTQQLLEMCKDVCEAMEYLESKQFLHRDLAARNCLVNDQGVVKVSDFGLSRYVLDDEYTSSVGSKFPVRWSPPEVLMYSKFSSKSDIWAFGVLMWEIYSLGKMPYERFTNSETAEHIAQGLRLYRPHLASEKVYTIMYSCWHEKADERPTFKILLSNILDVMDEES

IC50 | SMILES
1000 to 10000 nM | C=CC(=O)Nc1cccc(-n2c(=O)n(-c3ccc(Oc4cccc(Cl)c4)c(C)c3)c3cnccc32)c1 [Example 154, N-(3-(3-(4-(3-chlorophenoxy)-3-methylphenyl)-2-oxo-2,3-dihydro-1H-imidazo[4,5-c]pyridin-1-yl)phenyl)acrylamide]
10 to 100 nM | C=CC(=O)N1CC[C@@H](n2c(=O)n(-c3cccc(Oc4ccccc4)c3)c3cnccc32)C1 [Example 155, (R)-1-(1-acryloylpyrrolidin-3-yl)-3-(3-phenoxyphenyl)-1H-imidazo[4,5-c]pyridin-2(3H)-one]
1000 to 10000 nM | C=C(C)C(=O)N1CC[C@@H](n2c(=O)n(-c3cccc(Oc4ccccc4)c3)c3cnccc32)C1 [Example 156, (R)-1-(1-methacryloylpyrrolidin-3-yl)-3-(3-phenoxyphenyl)-1H-imidazo[4,5-c]pyridin-2(3H)-one]
≤ 10 nM | C=CC(=O)Nc1cccc(-n2c(=O)n(-c3ccc(Sc4ccccc4)cc3)c3cnccc32)c1 [Example 157, N-(3-(2-oxo-3-(4-(phenylthio)phenyl)-2,3-dihydro-1H-imidazo[4,5-c]pyridin-1-yl)phenyl)acrylamide]
10 to 100 nM | C=CC(=O)Nc1cccc(-n2c(=O)n(-c3ccc(Oc4cccc(OC)c4)cc3)c3cnccc32)c1 [Example 158, N-(3-(3-(4-(3-methoxyphenoxy)phenyl)-2-oxo-2,3-dihydro-1H-imidazo[4,5-c]pyridin-1-yl)phenyl) acrylamide]
10 to 100 nM | C=CC(=O)Nc1cccc(-n2c(=O)n(-c3ccc(Oc4ccc(Cl)c(Cl)c4)cc3)c3cnccc32)c1 [Example 159, N-(3-(3-(4-(3,4-dichlorophenoxy)phenyl)-2-oxo-2,3-dihydro-1H-imidazo[4,5-c]pyridin-1-yl)phenyl)acrylamide]
100 to 1000 nM | C=CC(=O)Nc1cccc(-n2c(=O)n(-c3ccc(Oc4ccc(Cl)c(F)c4)cc3)c3cnccc32)c1 [Example 160, N-(3-(3-(4-(4-chloro-3-fluorophenoxy)phenyl)-2-oxo-2,3-dihydro-1H-imidazo[4,5-c]pyridin-1-yl)phenyl)acrylamide]
100 to 1000 nM | C=CC(=O)Nc1cccc(-n2c(=O)n(-c3ccc(Oc4ccc(OC)c(F)c4)cc3)c3cnccc32)c1 [Example 161, N-(3-(3-(4-(3-fluoro-4-methoxyphenoxy)phenyl)-2-oxo-2,3-dihydro-1H-imidazo[4,5-c]pyridin-1-yl)phenyl)acrylamide]
100 to 1000 nM | C=CC(=O)Nc1cccc(-n2c(=O)n(-c3ccc(Oc4ccc(C#N)cc4)cc3)c3cnccc32)c1 [Example 162, N-(3-(3-(4-(4-cyanophenoxy)phenyl)-2-oxo-2,3-dihydro-1H-imidazo[4,5-c]pyridin-1-yl)phenyl)acrylamide]
100 to 1000 nM | C=CC(=O)Nc1cccc(-n2c(=O)n(-c3ccc(Oc4ccc(OC)c(C)c4)cc3)c3cnccc32)c1 [Example 163, N-(3-(3-(4-(4-methoxy-3-methylphenoxy)phenyl)-2-oxo-2,3-dihydro-1H-imidazo[4,5-c]pyridin-1-yl)phenyl)acrylamide]
1000 to 10000 nM | C=CC(=O)N1CCC(n2c(=O)n(-c3ccc(Oc4ccncc4)cc3)c3cnccc32)C1 (centres unmarked) [Example 164, 1-(1-acryloylpyrrolidin-3-yl)-3-(4-(pyridin-4-yloxy)phenyl)-1H-imidazo[4,5-c]pyridin-2(3H)-one]
100 to 1000 nM | C=CC(=O)N1CCC(n2c(=O)n(-c3ccc(Oc4cccnn4)cc3)c3cnccc32)C1 (centres unmarked) [Example 165, 1-(1-acryloylpyrrolidin-3-yl)-3-(4-(pyridazin-3-yloxy)phenyl)-1H-imidazo[4,5-c]pyridin-2(3H)-one]
≤ 10 nM | C=CC(=O)N1CCC[C@@H](n2c(=O)n(-c3ccc(Oc4cccc(OC)c4F)cc3)c3cncc(OC)c32)C1 [Example 166, (R)-1-(1-acryloylpiperidin-3-yl)-3-(4-(2-fluoro-3-methoxyphenoxy)phenyl)-7-methoxy-1H-imidazo[4,5-c]pyridin-2(3H)-one]
≤ 10 nM | C=CC(=O)N1CCC[C@@H](n2c(=O)n(-c3ccc(Oc4cccc(OC)c4F)cc3)c3cncc(OCC)c32)C1 [Example 167, (R)-1-(1-acryloylpiperidin-3-yl)-7-ethoxy-3-(4-(2-fluoro-3-methoxyphenoxy)phenyl)-1H-imidazo [4,5-c]pyridin-2(3H)-one]
≤ 10 nM | C=CC(=O)N1CCC[C@@H](n2c(=O)n(-c3ccc(Oc4cccc(OC)c4F)cc3)c3cncc(C)c32)C1 [Example 168, (R)-1-(1-acryloylpiperidin-3-yl)-3-(4-(2-fluoro-3-methoxyphenoxy)phenyl)-7-methyl-1H-imidazo[4,5-c]pyridin-2(3H)-one]
100 to 1000 nM | CC#CC(=O)N1CCC[C@@H]1Cn1c(=O)n(-c2ccc(Oc3cccc(OC)c3F)cc2)c2cncc(C)c21 [Example 169, (R)-1-((1-(but-2-ynoyl)pyrrolidin-2-yl)methyl)-3-(4-(2-fluoro-3-methoxyphenoxy)phenyl)-7-methyl-1H-imidazo[4,5-c]pyridin-2(3H)-one]

IC50 | SMILES
100 to 1000 nM | C=CC(=O)N1CCC[C@@H]1Cn1c(=O)n(-c2ccc(Oc3cccc(OC)c3F)cc2)c2cncc(C)c21 [Example 170, (R)-1-((1-acryloylpyrrolidin-2-yl)methyl)-3-(4-(2-fluoro-3-methoxyphenoxy)phenyl)-7-methyl-1H-imidazo[4,5-c]pyridin-2(3H)-one]
100 to 1000 nM | CC#CC(=O)N1CCC[C@@H](n2c(=O)n(-c3ccc(Oc4cccc(OC)c4F)cc3)c3cncc(C)c32)C1 [Example 171, (R)-1-(1-(but-2-ynoyl)piperidin-3-yl)-3-(4-(2-fluoro-3-methoxyphenoxy)phenyl)-7-methyl-1H-imidazo[4,5-c]pyridin-2(3H)-one]
≤ 10 nM | C=CC(=O)N1CC[C@@H](n2c(=O)n(-c3ccc(Oc4cccc(OC)c4F)cc3)c3cncc(C)c32)C1 [Example 172, (R)-1-(1-acryloylpyrrolidin-3-yl)-3-(4-(2-fluoro-3-methoxyphenoxy)phenyl)-7-methyl-1H-imidazo[4,5-c]pyridin-2(3H)-one]
10 to 100 nM | CC#CC(=O)N1CC[C@@H](n2c(=O)n(-c3ccc(Oc4cccc(OC)c4F)cc3)c3cncc(C)c32)C1 [Example 173, (R)-1-(1-(but-2-ynoyl)pyrrolidin-3-yl)-3-(4-(2-fluoro-3-methoxyphenoxy)phenyl)-7-methyl-1H-imidazo[4,5-c] pyridin-2(3H)-one]
10 to 100 nM | CN(C(=O)/C=C/CN(C)C1CC1)c1cccc(-n2c(=O)n(-c3ccc(Oc4ccccc4)cc3)c3c(N)ncnc32)c1 [Example 174, (E)-N-(3-(6-amino-8-oxo-7-(4-phenoxyphenyl)-7H-purin-9(8H)-yl)phenyl)-4-(cyclopropyl(methyl)amino)-N-methylbut-2-enamide]
100 to 1000 nM | CC#CC(=O)N1CCC[C@@H](n2c(=O)n(-c3ccc(Oc4cccc(OC)c4F)cc3)c3cnccc32)C1 [Example 175, (R)-1-(1-(but-2-ynoyl)piperidin-3-yl)-3-(4-(2-fluoro-3-methoxyphenoxy)phenyl)-1H-imidazo[4,5-c]pyridin-2(3H)-one]
≤ 10 nM | C=CC(=O)N1CC[C@@H](n2c(=O)n(-c3ccc(Oc4ccccc4)cc3)c3cncc(C)c32)C1 [Example 176, (R)-1-(1-acryloylpyrrolidin-3-yl)-7-methyl-3-(4-phenoxyphenyl)-1H-imidazo[4,5-c]pyridin-2(3H)-one]
100 to 1000 nM | C=CC(=O)N1CC[C@H](n2c(=O)n(-c3ccc(Oc4ccccc4)cc3)c3/c(=N/O)[nH]cnc32)C1 [Example 177, (S,Z)-9-(1-acryloylpyrrolidin-3-yl)-6-(hydroxyimino)-7-(4-phenoxyphenyl)-7,9-dihydro-1H-purin-8(6H)-one]
10 to 100 nM | C=CC(=O)N1CCCC1Cn1c(=O)n(-c2ccc(Oc3ccccc3)cc2)c2cnccc21 (centres unmarked) [Example 178, 1-(1-Acryloyl-pyrrolidin-2-ylmethyl)-3-(4-phenoxy-phenyl)-1,3-dihydro-imidazo [4,5-c]pyridin-2-one]
≥ 10000 nM | C=CC(=O)N1CC[C@H](n2c(=O)n(-c3ccc(Oc4ccccc4)cc3)c3c(/C(N)=N/O)nccc32)C1 [Example 179, (S,Z)-1-(1-acryloylpyrrolidin-3-yl)-N′-hydroxy-2-oxo-3-(4-phenoxyphenyl)-2,3-dihydro-1H-imidazo[4,5-c] pyridine-4-carboximidamide]
100 to 1000 nM | CC(C)(C)/C=C(/C#N)C(=O)N1CCCC1Cn1c(=O)n(-c2ccc(Oc3ccccc3)cc2)c2cnccc21 (centres unmarked) [Example 180, 4,4-Dimethyl-2-{2-[2-oxo-3-(4-phenoxy-phenyl)-2,3-dihydro-imidazo[4,5-c]pyridin-1-ylmethyl]-pyrrolidine-1-carbonyl}-pent-2-enenitrile]
10 to 100 nM | C=CC(=O)N1CC[C@@H](n2c(=O)n(-c3ccc(Oc4ccccc4)cc3)c3cncc(C#N)c32)C1 [Example 181, (R)-1-(1-acryloylpyrrolidin-3-yl)-oxo-3-(4-phenoxyphenyl)-2,3-dihydro-1H-imidazo[4,5-c] pyridine-7-carbonitrile]
≥ 10000 nM | C=CC(=O)N1CC[C@@H](n2c(=O)n(-c3ccc(Oc4ccccc4)cc3)c3c(OC)nccc32)C1 [Example 182, (R)-1-(1-acryloylpyrrolidin-3-yl)-4-methoxy-3-(4-phenoxyphenyl)-1H-imidazo[4,5-c]pyridin-2(3H)-one]
≥ 10000 nM | C=CC(=O)N1CC[C@@H](n2c(=O)n(-c3ccc(Oc4ccccc4)cc3)c3c(O)nccc32)C1 [Example 183, (R)-1-(1-acryloylpyrrolidin-3-yl)-4-hydroxy-3-(4-phenoxyphenyl)-1H-imidazo[4,5-c]pyridin-2(3H)-one]
≤ 10 nM | C=CC(=O)N1CCC[C@@H](n2c(=O)n(-c3ccc(Oc4cccc(OC)c4Cl)cc3)c3cnccc32)C1 [Example 185, (R)-1-(1-acryloylpiperidin-3-yl)-3-(4-(2-chloro-3-methoxyphenoxy)phenyl)-1H-imidazo[4,5-c]pyridin-2(3H)-one]
≤ 10 nM | C=CC(=O)N1CCC[C@@H](n2c(=O)n(-c3ccc(Oc4cccc(OC)c4F)cc3)c3cnccc32)C1 [Example 186, (R)-1-(1-acryloylpiperidin-3-yl)-3-(4-(2-fluoro-3-methoxyphenoxy)phenyl)-1H-imidazo[4,5-c]pyridin-2(3H)-one]
